Paper PMC3877016 (PLoS ONE, 2013)
One block for each molecule: values may come before it.

Legend:
IL-6 mRNA in U937 cells = assay: Inhibition of IL-6 mRNA in LPS-stimulated U937 cells (RT-PCR); type: cell-based, human; settings: U937 cells differentiated with PMA
Experimental: (§1) Huh7 cells were plated at 23,000/well in a 96 well plate in DMEM +10% FBS before allowing to grow overnight. Cells were treated with compounds for 48 h in 0.1%DMSO with or without 5 µM Actinomycin D. U937 cells were differentiated for 3 days in 60 ng/mL PMA, 32,000 cells/well in 96-well format. Cells were then treated with compound in 0.1%DMSO in RPMI media +10%FBS, and after 1 h, lipopolysaccharide (LPS, Sigma) was added to the cells at 1 µg/mL for 3 hours.
(§2) Cells were harvested by mRNA Catcher PLUS Kit followed by real-time PCR using the RNA UltraSense One-Step qRT-PCR System. ApoA-I, IL-6 and TNFα mRNA levels were measured relative to the endogenous control serpin A1 or cyclophilin in the same sample. Data was acquired using the 7500 Real Time PCR System (Applied Biosystems).

[1] = tested on: ApoA-I mRNA in Huh7 cells; assay: Induction of ApoA-I mRNA in Huh7 cells (RT-PCR); type: cell-based, human; settings: for Induction of ApoA-I mRNA: 48 h
Experimental: as §1, §2

GCN5 = biological target: T1, GCN5 (Homo sapiens, UniProt Q92830); assay: Protein thermal denaturation assay; type: binding; settings: 5 µM protein, 100 µM compound
T1 construct: bromodomains contained within six other proteins (CREBBP, p300, BAZ2B, GCN5, PHIP and SMARC2A); His-tag (N)
T1 sequence (Q92830 728-832 limits assumed): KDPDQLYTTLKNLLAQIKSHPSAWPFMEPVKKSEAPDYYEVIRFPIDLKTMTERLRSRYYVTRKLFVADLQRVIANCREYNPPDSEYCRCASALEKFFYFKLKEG
Experimental: (§3) 5 µM of purified bromodomain protein was incubated with 5X SYPRO® Orange (Molecular Probes) at a final concentration of 20 mM HEPES pH 7.4, 100 mM NaCl in the presence of 100 µM compound or DMSO (0.2%) in a fast 96 well optical plate (Applied Biosytems). Samples were incubated at room temperature for 30 minutes and ramped from 25°C to 95°C in a ViiA7 real-time PCR machine (Applied Biosystems). The resulting fluorescence data was analyzed and melting temperatures calculated using Protein Thermal Shift™ Software v1.0 (Life Technologies).

SMARCA2A = biological target: T2, SMARCA2A (Homo sapiens, UniProt P51531); assay: Protein thermal denaturation assay; type: binding; settings: 5 µM protein, 100 µM compound
T2 construct: bromodomains contained within six other proteins (CREBBP, p300, BAZ2B, GCN5, PHIP and SMARC2A); His-tag (N)
T2 sequence (P51531 1378-1506 limits assumed): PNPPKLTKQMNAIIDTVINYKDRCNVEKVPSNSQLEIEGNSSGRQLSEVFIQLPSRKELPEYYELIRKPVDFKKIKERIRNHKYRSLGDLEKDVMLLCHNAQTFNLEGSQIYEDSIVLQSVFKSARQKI
Experimental: as §3

P300 = biological target: T3, P300 (Homo sapiens, UniProt Q09472); assay: Protein thermal denaturation assay; type: binding; settings: 5 µM protein, 100 µM compound
T3 construct: bromodomains contained within six other proteins (CREBBP, p300, BAZ2B, GCN5, PHIP and SMARC2A); His-tag (N)
T3 sequence (Q09472 1049-1156 limits assumed): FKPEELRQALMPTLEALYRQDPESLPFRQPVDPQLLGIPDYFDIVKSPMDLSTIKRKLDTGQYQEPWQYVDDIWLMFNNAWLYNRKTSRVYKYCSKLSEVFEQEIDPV
Experimental: as §3

CREBBP = biological target: T4, CREBBP (Homo sapiens, UniProt Q92793); assay: Protein thermal denaturation assay; type: binding; settings: 5 µM protein, 100 µM compound
T4 construct: bromodomains contained within six other proteins (CREBBP, p300, BAZ2B, GCN5, PHIP and SMARC2A); His-tag (N)
T4 sequence (Q92793 1085-1192 limits assumed): as the sequence (Q09472 1049-1156 limits assumed) above, with S47N, I73V, Y93F, S98A counted along it
Experimental: as §3

BAZ2B = biological target: T5, BAZ2B (Homo sapiens, UniProt Q9UIF8); assay: Protein thermal denaturation assay; type: binding; settings: 5 µM protein, 100 µM compound
T5 construct: bromodomains contained within six other proteins (CREBBP, p300, BAZ2B, GCN5, PHIP and SMARC2A); His-tag (N)
T5 sequence (Q9UIF8 2060-2164 limits assumed): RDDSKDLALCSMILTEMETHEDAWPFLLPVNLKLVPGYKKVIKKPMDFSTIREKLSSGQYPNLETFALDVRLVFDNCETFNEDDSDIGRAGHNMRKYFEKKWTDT
Experimental: as §3

PHIP = biological target: T6, PHIP (Homo sapiens, UniProt Q8WWQ0); assay: Protein thermal denaturation assay; type: binding; settings: 5 µM protein, 100 µM compound
T6 construct: bromodomains contained within six other proteins (CREBBP, p300, BAZ2B, GCN5, PHIP and SMARC2A); His-tag (N)
Experimental: as §3

[2] = tested on: cholesterol efflux capacity; settings: monkeys; cited from earlier work
BRD2[BD2] [3] = biological target: T7, BRD2[BD2] (Homo sapiens, UniProt P25440); assay: Isothermal titration calorimetry; type: binding; settings: ITC, 25°C
T7 construct: we expressed and purified the bromodomains (BD1, BD2) for the BETs expressed in hepatocytes (BRD2, BRD3, BRD4)
T7 sequence (P25440 344-453 limits assumed): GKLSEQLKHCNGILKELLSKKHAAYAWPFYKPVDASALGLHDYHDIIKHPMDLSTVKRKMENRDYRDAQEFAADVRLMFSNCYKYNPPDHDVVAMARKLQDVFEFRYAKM

ApoA-I mRNA in HepG2 = settings: cited from earlier work
BRD3[BD2] = biological target: T8, BRD3[BD2] (Homo sapiens, UniProt Q15059); assay: Protein thermal denaturation assay; type: binding; settings: 5 µM protein, 100 µM compound
T8 construct: we expressed and purified the bromodomains (BD1, BD2) for the BETs expressed in hepatocytes (BRD2, BRD3, BRD4)
T8 sequence (Q15059 306-415 limits assumed): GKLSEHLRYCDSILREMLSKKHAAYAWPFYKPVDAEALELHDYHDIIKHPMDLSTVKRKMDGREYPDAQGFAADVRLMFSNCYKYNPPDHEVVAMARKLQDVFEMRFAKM
Experimental: as §3

BRD2[BD2] [4] = biological target: T7, BRD2[BD2]; assay: Protein thermal denaturation assay; type: binding
Experimental: as §3

BRD2[BD1] [5] = biological target: T9, BRD2[BD1] (Homo sapiens, UniProt P25440); assay: Protein thermal denaturation assay; type: binding
T9 construct: we expressed and purified the bromodomains (BD1, BD2) for the BETs expressed in hepatocytes (BRD2, BRD3, BRD4)
T9 sequence (P25440 74-180 limits assumed): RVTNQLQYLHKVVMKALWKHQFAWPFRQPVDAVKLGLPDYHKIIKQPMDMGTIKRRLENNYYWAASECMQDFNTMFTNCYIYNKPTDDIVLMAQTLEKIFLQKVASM
Experimental: as §3

BRD3[BD1] = biological target: T10, BRD3[BD1] (Homo sapiens, UniProt Q15059); assay: Protein thermal denaturation assay; type: binding; settings: 5 µM protein, 100 µM compound
T10 construct: we expressed and purified the bromodomains (BD1, BD2) for the BETs expressed in hepatocytes (BRD2, BRD3, BRD4)
T10 sequence (Q15059 34-140 limits assumed): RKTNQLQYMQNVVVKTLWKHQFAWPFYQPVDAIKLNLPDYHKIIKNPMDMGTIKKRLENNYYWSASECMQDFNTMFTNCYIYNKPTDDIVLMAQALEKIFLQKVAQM
Experimental: as §3

BRD4[BD1] [6] = biological target: T11, BRD4[BD1] (Homo sapiens, UniProt O60885); assay: Protein thermal denaturation assay; type: binding
T11 construct: we expressed and purified the bromodomains (BD1, BD2) for the BETs expressed in hepatocytes (BRD2, BRD3, BRD4)
Experimental: as §3

BRD4[BD2] [7] = biological target: T12, BRD4[BD2] (Homo sapiens, UniProt O60885); assay: Protein thermal denaturation assay; type: binding
T12 construct: we expressed and purified the bromodomains (BD1, BD2) for the BETs expressed in hepatocytes (BRD2, BRD3, BRD4)
Experimental: as §3

ApoA-I and HDL-C levels = tested on: ApoA-I and HDL-C levels; set-up: method as in PMID 21255957; settings: statin-treated patients with coronary artery disease; cited from earlier work
BRD4[BD2] [8] = biological target: T12, BRD4[BD2]; assay: Isothermal titration calorimetry; type: binding; settings: ITC, 25°C
[9] = tested on: bromodomains of CREBBP, p300, BAZ2B, GCN5, PHIP and SMARC2A; assay: Protein thermal denaturation assay (text summary); type: binding
Experimental: as §3

[10] = biological target: T13, PHIP on chromatin in Huh7 cells (Homo sapiens, UniProt Q8WWQ0); assay: Extraction of soluble proteins from chromatin (Western blot); type: cell-based
T13 construct: endogenous in cells; host or cells: Huh7
Experimental: Soluble proteins were extracted using a buffer containing 0.5% Triton X-100 (10 mM PIPES pH 6.8, 300 mM sucrose, 50 mMNaCl, 3 mM MgCl2, 1 mM EGTA, 2 mM ribonucleoside vanadyl complex) as previously described. After loading on a 4–12% NuPAGE gradient gel (Life Technologies), the soluble and chromatin-containing pellet fractions were evaluated by Western blot with the following antibodies and dilutions: BRD2 (Bethyl, A302-583A, 1∶5000); BRD3 (Bethyl A302-368A, 1∶2000); BRD4 (Bethyl A301-985A, 1∶1000); PHIP (Abcam ab86244, 1∶2000), HNF4a (Perseus PPH1415, 1∶1000); NR2F2 (Perseus PPH7147, 1∶1000).

BRD4[BD1] [11] = biological target: T11, BRD4[BD1]; assay: Isothermal titration calorimetry; type: binding; settings: ITC, 25°C
[12] = biological target: BRDT tandem bromodomains [BD1 BD2] (Homo sapiens, UniProt Q58F21); assay: TR-FRET competition assay, tandem bromodomains; type: binding
Experimental: (§4) For inhibition assays, serially diluted compound was added to these reactions in a 0.2% final concentration of DMSO. Final buffer concentrations were 30 mM HEPES pH 7.4, 30 mM NaCl, 0.3 mM CHAPS, 20 mM PO4 pH 7.0, 320 mM KF, 0.08% BSA). After 2 h incubation at room temperature, the fluorescence by FRET was measured at 665 and 620 nm by a SynergyH4 plate reader (Biotek). IC50 values were determined from a dose response curve.

[13] = biological target: BD1 bromodomains of BRDs 2 and 3; assay: TR-FRET competition assay; type: binding, human; settings: BD1 of BRDs 2 and 3, text summary citing Table 3
Experimental: as §4, with “200 nM N-terminally His-tagged bromodomains or BRD4(BD1BD2) and 25–50 nM biotinylated tetra-acetylated histone H4 peptide (Millipore) were incubated in the presence of Europium Cryptate-labeled streptavidin (Cisbio Cat. #610SAKLB) and XL665-labeled monoclonal anti-His antibody (Cisbio Cat.#61HISXLB) in a white 96 well microtiter plate (Greiner). For” for “For”

[14] = tested on: BRDs2, 3 and 4 on chromatin in Huh7 cells; assay: Extraction of soluble BET proteins from chromatin (Western blot); type: cell-based, human
Experimental: Soluble proteins were extracted using a buffer containing 0.5% Triton X-100 (10 mM PIPES pH 6.8, 300 mM sucrose, 50 mMNaCl, 3 mM MgCl2, 1 mM EGTA, 2 mM ribonucleoside vanadyl complex) as previously described.

BRD2[BD1] [15] = biological target: T9, BRD2[BD1]; assay: Isothermal titration calorimetry; type: binding; settings: ITC, 25°C

Structure (SMILES): Cc1sc2c(c1C)C(c1ccc(Cl)cc1)=N[C@@H](CC(=O)OC(C)(C)C)c1nnc(C)n1-2 [JQ-1, reference compound]
Suppression of IL-6 mRNA (IL-6 mRNA in U937 cells): selectively suppresses IL-6 mRNA
Induction of ApoA-I mRNA [1]: induces ApoA-I mRNA
Thermal denaturation ΔTm (GCN5): −0.7 °C
Thermal denaturation ΔTm (SMARCA2A): 0.4 °C
Thermal denaturation ΔTm (P300): −1.4 °C
Thermal denaturation ΔTm (CREBBP): −1.0 °C
Thermal denaturation ΔTm (BAZ2B): −0.83 °C
Thermal denaturation ΔTm (PHIP): −1.4 °C

ΔH (BRD2[BD2] [3]): -4.145 kcal/mol
ΔS (BRD2[BD2] [3]): +16.7 cal mol^−1 K^−1
ΔTm at 100 µM (GCN5): 0 °C
ΔTm at 100 µM (SMARCA2A): 0.4 °C
ΔTm at 100 µM (BRD3[BD2]): 6.8 °C
ΔTm at 100 µM (P300): -0.16 °C
ΔTm at 100 µM (CREBBP): -0.3 °C
ΔTm at 100 µM (BAZ2B): 0 °C
ΔTm at 100 µM (BRD2[BD2] [4]): 5.1 °C
ΔTm at 100 µM (BRD2[BD1] [5]): 1.9 °C
ΔTm at 100 µM (PHIP): 0.19 °C
ΔTm at 100 µM (BRD3[BD1]): 2.6 °C
ΔTm at 100 µM (BRD4[BD1] [6]): 3.9 °C
ΔTm at 100 µM (BRD4[BD2] [7]): 7.7 °C
ΔH (BRD4[BD2] [8]): -6.376 kcal/mol
ΔS (BRD4[BD2] [8]): +8.44 cal mol^−1 K^−1
Binding to bromodomains of six other proteins [9]: did not bind
ΔH (BRD4[BD1] [11]): -17.04 kcal/mol
ΔS (BRD4[BD1] [11]): −34.1 cal mol^−1 K^−1
IC50 [12]: 1.45 µM
Kd [13]: 2 to 3 µM
Release of BRDs2, 3 and 4 from chromatin into soluble fraction [14]: partially released from chromatin
ΔH (BRD2[BD1] [15]): -12.67 kcal/mol
Structure (SMILES): COc1cc(OC)c2c(=O)[nH]c(-c3cc(C)c(OCCO)c(C)c3)nc2c1 [RVX-208, 2-(4-(2-hydroxyethoxy)-3,5-dimethylphenyl)-5,7-dimethoxyquinazolin-4(3H)-one]
Systemic capacity to promote cholesterol efflux [2]: enhanced systemic capacity to promote cholesterol efflux
Induction of ApoA-I mRNA (ApoA-I mRNA in HepG2): induces ApoA-I mRNA
Suppression of IL-6 mRNA (IL-6 mRNA in U937 cells): selectively suppresses IL-6 mRNA
Induction of ApoA-I in presence of Actinomycin D ([1]; 30 µM RVX-208, with 5 µM Actinomycin D): inhibited by Actinomycin D
Induction of ApoA-I mRNA [1]: induces ApoA-I mRNA
ApoA-I levels (ApoA-I and HDL-C levels): increased
HDL-C levels (ApoA-I and HDL-C levels): increased
Release of PHIP from chromatin [10]: stays in the insoluble (pellet, P) fraction
Duration of release of BET proteins from chromatin [14]: more than 48 h
Time to release of BET proteins from chromatin ([14]; time of treatment): ≤ 2 h
